Data published in publication PMC12948223, “HSP70 Interactome‐Mediated Proteolysis Targeting Chimera (HSP70‐PROTAC) for Ferroptosis‐Driven Cancer Treatment” (Advanced Science, 2025).
Read-outs that look alike come from different tables or passages of the source.

Key:
HT1080 xenograft tumor = HT1080 xenograft tumor mouse model, antitumor efficacy and safety; assay type: in vivo; conditions: 30 mg/kg IP once daily
Experimental: Motivated by the aforementioned in vitro findings, we subsequently sought to evaluate the in vivo antitumor efficacy of GDAz‐3 using an HT1080 xenograft tumor mouse model. The tumor‐bearing mice were randomly divided into six groups, minimizing weight and tumor size differences among the groups (n = 6 in each group). The treatment group mice were administered once daily by intraperitoneal injection (IP) with GDAz‐3 at a dosage of 30 or 60 mg kg^−1, while the control group animals were treated with the corresponding solvent, ML162, and apoptozole at a dosage of 30 mg kg^−1. Additionally, we set up a drug combination group to confirm the superiority of GDAz‐3. After treatment for 17 days, animals were humanely euthanized and the tumors were excised (Figure 7B). […] The advantage of the safety of GDAz‐3 was also determined by the hematoxylin and eosin (H&E) staining. […] In general, compared with the single inhibitor or their combination, the in vivo antitumor study confirmed the efficacy and safety of GDAz‐3.
The experimental procedures of the animal experiments were permitted by the Hangzhou Institute of Medicine (HIM), Chinese Academy of Sciences (AP2024‐07‐0010). Male BALB/c nude mice (6 weeks old) were housed under pathogen‐free conditions, maintained at a constant room temperature, and fed standard rodent chow and water. An HT1080 fibrosarcoma xenograft model in nude mice was established through subcutaneous transplantation. When the tumors emerged, the mice were randomly divided into six groups with six mice in each group: GDAz‐3‐treated at 30 or 60 mg kg^−1 group and control groups, including the vehicle group, and each of the two inhibitor‐treated groups (ML162 and apoptozole) at 30 mg kg^−1, and their combinations. The mice were intraperitoneally (IP) injected daily according to their body weight. Body weight and tumor size were measured every other day, and the tumor volume and body weight were recorded every other day after drug treatment. After treatment, the animals were euthanized by cervical dislocation, and the tumor bulks were peeled off and weighed. The organ tissues (tumor, heart, liver, spleen, lung, and kidney) were harvested and fixed with 4% paraformaldehyde for hematoxylin‐eosin (H&E) and immunohistochemistry (IHC) staining. In addition, the expression of GPX4 in tumor samples was analyzed in vehicle‐ and GDAz‐3‐treated groups by western blot assay.

Hsc70 = biological target: Hsc70; set-up: method as in PMID 18729127; conditions: cited from earlier work
HT1080 cells [1] = experiment: Cell viability CCK-8 assay; assay type: cell-based, human; conditions: CCK-8, 48 h, read-out: IC50 (cytotoxicity)
Experimental: To determine whether GPX4 degradation following treatment with HSP70‐PROTACs triggers cancer cell ferroptosis, we initially assessed the viability of HT1080 cells using the CCK‐8 assay after treatment with various concentrations of the tested compounds for 48 h. GPX4 inhibitor ML162, HSP70 inhibitor apoptozole, and two GPX4 non‐degradable HSP70‐PROTAC molecules, GDAz‐Neg1 and GDAz‐Neg2, were selected as controls. […] This remarkable activity might partly be ascribed to the high cell permeability conferred by the piperazine ring. […] We speculated that the potent anti‐proliferative activity of GDAz‐Neg2 may be attributed to the GPX4 inhibition.
The compounds under investigation were initially dissolved in dimethyl sulfoxide (DMSO) to generate stock solutions with a concentration of 10 mM. HT1080 cells or other tested cells were seeded in 96‐well plates at a density of 3000–5000 cells well^−1 and cultured at 37 °C. Following a 24‐h incubation period, the tested compounds were added to the wells at various concentrations (the DMSO stock solutions of all the tested compounds were diluted with culture medium to obtain the designated concentration containing a final concentration of DMSO less than 0.5% (v/v)). The cells were then cultured for an additional 48 or 72 h. Cell Counting Kit 8 (CCK‐8) assay was conducted to examine the effects of the tested compounds on cell viability, and the absorbance was measured at a wavelength of 450 nm. The IC50 values were determined utilizing GraphPad Prism software through nonlinear regression analysis. All experiments were independently repeated at least three times.

Hsp70 = biological target: Hsp70; set-up: method as in PMID 18729127; conditions: cited from earlier work
GPX4 [2] = biological target: T1, GPX4 (Homo sapiens, UniProt P36969); experiment: GPX4 degradation by western blot in HT1080 cells; assay type: cell-based; set-up: determine the changes in the endogenous levels of GPX4 by western blot assay; endogenous in cells; host or cells: HT1080 fibrosarcoma cells, including siRNA-knockdown derivatives; conditions: HT1080 cells, 0.3 µM, 24 h (Figure 3A)
T1 sequence (P36969 1-170 isoform P36969-2): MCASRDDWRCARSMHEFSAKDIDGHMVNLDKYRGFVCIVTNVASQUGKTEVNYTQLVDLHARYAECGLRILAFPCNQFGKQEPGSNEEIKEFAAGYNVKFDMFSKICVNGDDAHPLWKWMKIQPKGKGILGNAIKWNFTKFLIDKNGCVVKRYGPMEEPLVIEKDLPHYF
Experimental: To evaluate the GPX4 degradation efficiency of the synthesized HSP70‐PROTACs GDAz‐1–14, we first selected ferroptosis‐sensitive HT1080 fibrosarcoma cells (highly‐expressing GPX4) treated with different concentrations (0.1, 0.3, 1, and 3 µM) of these chimeras to determine the changes in the endogenous levels of GPX4 by western blot assay after 24 h treatment. […] This finding underscores the crucial role of the linker in HSP70‐PROTAC‐mediated protein degradation. […] In the case of alkyl chain derivatives (GDAz‐6–10), elongating the length of the linker generally led to a decreased GPX4 degrading activity. […] Thus, GDAz‐3 was selected for further evaluation.
(§1) Cells were seeded at a density of 4 × 10^5 cells well^−1 in 6‐well plates and allowed to incubate overnight. Cells were incubated with the indicated treatments. Thereafter, the cells were collected and lysed with RIPA buffer containing serine protease and phosphatase inhibitors for 30 min on ice. Proteins were quantified by using a BCA protein assay kit (Beyotime). Subsequently, SDS‐PAGE sample loading buffer was added, and the mixture was heated in a 100 °C metal bath for 10 min to denature the proteins. Protein samples from each group were separated by SDS‐PAGE gel and transferred to a PVDF membrane. After blocking with 5% skim milk for 1 h at room temperature, primary antibodies (GPX4: abcam (#ab125066, 1:1000); Hsp70: abcam (#ab2787, 1:1000); CHIP: HUABIO (#ST7108, 1:1000); UpingBio Technology Co., Ltd. (BRD4, #YP‐Ab‐18034, 1:1000; BAG‐1, #YP‐Ab‐00575, 1:1000); GAPDH: Proteintech (#60004‐1‐Ig, 1:50 000)) were used and incubated at 4 °C overnight on a rotary shaker. After washing the membranes with TBST buffer five times, the membranes were incubated with a second antibody (Cell Signaling Technology, #7074S, 1:1000 and #7076S, 1:1000) at room temperature for 2 h. Ultimately, the membrane was washed five times, and the antibody‐protein complexes were visualized using an ECL luminescence reagent (Biosharp, Shanghai, China). The relative intensities of the bands were analyzed by ImageJ and normalized to a loading control.

ferroptosis = tested on: ferroptosis; set-up: method as in PMID 34506134, PMID 35648631; conditions: cited from earlier work
HT1080 cells [3] = tested on: HT1080 cells; set-up: method as in PMID 39230973; conditions: same experimental conditions, cited from earlier work
GPX4 [4] = biological target: T1, GPX4; set-up: determine the changes in the endogenous levels of GPX4 by western blot assay; endogenous in cells; host or cells: HT1080 fibrosarcoma cells, including siRNA-knockdown derivatives; method as in PMID 39230973; conditions: cited from earlier work
GPX4 [5] = biological target: T1, GPX4; experiment: GPX4 degradation by western blot in 786-O cells; assay type: cell-based; set-up: endogenous in cells; host or cells: 786-O; conditions: up to 10 µM, 24 h; sentence reads 'neither ... nor ... induced any degradation effect' = no degradation
Description: As previously mentioned, drug resistance and limited application scope are the significant challenges of traditional PROTAC, due partly to CRBN/VHL mutations or low expression. In this study, we investigated whether the developed HSP70‐PROTAC could address these challenges. Specifically, we examined the developed HSP70‐PROTAC in scenarios where VHL‐ or CRBN‐based PROTACs are ineffective due to intrinsic or acquired resistance. Several previously reported representative GPX4‐targeting degraders, including dGPX4 (CRBN‐based PROTAC, Figure 1A), 8e (VHL‐based PROTAC, Figure 1B), and GDCNF‐11/2 (HSP90‐based HIM‐PROTAC, Figure 1C, the structure of the GDCNF‐11 derivative GDCNF‐2 was not shown) were selected as control agents.^[ [18], [23], [28] ^] […] The clear cell renal cell carcinoma (ccRCC) 786‐O cell line is a well‐established cancer cell model characterized by an intrinsic deficiency in VHL expression.^[ [43], [44], [45] ^] We also confirmed this characteristic through evaluating the VHL expression levels in several randomly selected cancer cell lines (Figure S10A, Supporting Information). We further selected 786‐O cells as a model to confirm whether HSP70‐PROTAC could be used in such cases as an alternative to VHL‐based degraders, because VHL‐based PROTACs cannot be used to treat kidney cancer with a mutation or deletion in the VHL gene.
as §1

BRD4 = biological target: T2, BRD4 (Homo sapiens, UniProt O60885); experiment: BRD4 degradation by western blot in MOLT-4 cells; assay type: cell-based; conditions: 48 h
T2 construct: effectively degrading additional endogenous bromodomain‐containing protein 4 (BRD4) in cancer cells; endogenous in cells; host or cells: MOLT-4
Description: To expand beyond the GPX4 degradation, we next sought to investigate the potential of the HSP70 complex to facilitate the degradation of additional proteins. We selected oncoprotein bromodomain containing 4 (BRD4), a degradable protein that not only has been widely used as a model substrate for development of new technologies in the TPD field, but also serves as a validated therapeutic target for multiple cancers. We synthesized three heterobifunctional compounds (GDAz‐15–17) by conjugating the HSP70 binding moiety apoptozole to the well‐established BRD4 inhibitor (+)‐JQ‐1 (a potent, specific, and reversible BRD4 inhibitor extensively applied in TPD) via PEG linkers of varying lengths (Figure 8E; Scheme S6, Supporting Information). T lymphoblast MOLT‐4 cell line with BRD4 overexpression was selected for biological evaluation.
as §1, with “After washing the membranes with TBST buffer five times, the membranes were incubated with a second antibody (Cell Signaling Technology, #7074S, 1:1000 and #7076S, 1:1000) at room temperature for 2 h.” left out

COc1ccc(-c2nc(-c3cc(C(F)(F)F)cc(C(F)(F)F)c3)n(Cc3ccc(C(N)=O)cc3)c2-c2ccc(OC)cc2)cc1 [Apoptozole, reference compound]
Toxic effects during treatment (HT1080 xenograft tumor): serious toxic effects such as death | Kd (Hsc70): 210 nM | IC50 (HT1080 cells [1]): 17000 nM | Kd (Hsp70): 140 nM | GPX4 degradation (GPX4 [2]): this degradation effect was not observed

COC(=O)c1ccc([C@@H]2c3[nH]c4ccccc4c3C[C@@H](C(=O)OC)N2C(=O)CCl)cc1 [RSL3]
Ferroptosis selectivity (SI) (ferroptosis): 3.1

COc1c(C)cnc(Cn2cnc3c(NCCC4CCN(C(=O)Cn5cc(COc6ccc(N(C(=O)CCl)C(C(=O)NCCc7ccccc7)c7cccs7)cc6Cl)nn5)CC4)nc(N)nc32)c1C (stereo not drawn) [GDCNF-11]
IC50 (HT1080 cells [3]; read-out: IC50 (antiproliferative activity)): 790 nM | Ferroptosis selectivity index (HT1080 cells [3]): about 45 fold | Onset of GPX4 protein degradation (GPX4 [4]): initiating GPX4 protein degradation after 12 h | GPX4 degradation in 786-O cells (GPX4 [5]): induced any degradation effect

COc1ccc(-c2nc(-c3cc(C(F)(F)F)cc(C(F)(F)F)c3)n(Cc3ccc(C(=O)NCCOCCOCCNC(=O)C[C@@H]4N=C(c5ccc(Cl)cc5)c5c(sc(C)c5C)-n5c(C)nnc54)cc3)c2-c2ccc(OC)cc2)cc1 [GDAz-15, (S)-4-((2-(3,5-bis(trifluoromethyl)phenyl)-4,5-bis(4-methoxyphenyl)-1H-imidazol-1-yl)methyl)-N-(2-(2-(2-(2-(4-(4-chlorophenyl)-2,3,9-trimethyl-6H-thieno[3,2-f][1,2,4]triazolo[4,3-a][1,4]diazepin-6-yl)acetamido)ethoxy)ethoxy)ethyl)benzamide]
BRD4 degradation (BRD4; 0.5 µM): nearly thorough BRD4 degradation | BRD4 degradation (BRD4): effectively trigger BRD4 degradation
